Measured values published in patent US8530507B2, “Use of levo-ornidazole in the preparation of anti-anaerobic bacteria infection drugs” (priority 2005, dated 2013).
≈ marks a conversion by molar mass, not a printed value. Like-named read-outs stand apart in the source and are kept apart here.

What was measured:
[1] = Acute toxicology test, LD50 in mice (Bliss method); assay type: in vivo; conditions: both sexes, Kunming, mouse, in vivo, read-out: 95% confidence interval (CI) of LD50
Protocol: Kunming mice, half males and half females, with body weights of 18˜22 g, were administered the testing drug solution by injection 8 hours after fasting. The death status of animals was consecutively observed for 14 days after administration.

Beagle dogs = conditions: dog, in vivo, iv, 200 mg/kg
From the text: 2. Toxicity Test in Beagle Dogs (Non-Rodent) After Intravenous Administration of L-ornidazole for Two Weeks
Beagle dogs, 4 dogs in each group with half females and half males, were divided into L-, D-, and racemic ornidazole groups.

Clostridium = assay: In vitro MIC determination, clinical anaerobic strains; assay type: cell-based; conditions: 6 clinical strains, GAM broth, 72 hours anaerobic incubation at 35° C.
Protocol: (§1) Experimental strains: isolated from clinical specimens, and species identification were conducted.
(§2) Bacilli preparation: 4˜5 bacteria colonies with same pattern selected from anaerobic GAM plate were inoculated in GAM broth with inoculating loop. The bacteria was incubated at 35° C. under anaerobic condition until a slight turbidity was attained, and adjusted by means of sterilized saline (deoxygenated) so as to attain a turbidity equivalent to the No. 0.5 McFarland turbidity tube, then diluted with GAM broth (at 1:200) for later use.
(§3) MIC (Minimum Inhibitory Concentration) determination: the testing drugs and control drugs were diluted with GAM broth to different concentrations in the test tubes, followed by addition of equal volume of diluted Bacilli (at 1:200), MIC values were read 72 hours after anaerobic incubation at 35° C.

Veillonella = assay: as above; assay type: cell-based; conditions: 23 clinical strains, GAM broth, 72 hours anaerobic incubation at 35° C.
Protocol: as §1, §2, §3

mice [2] = conditions: mouse, in vivo, 40 mg/kg
Protocol: (§4) The same volume of 0.9% sodium chloride injection containing propylene glycol was administered in the vehicle control group. 30 minute after drug administration, 40 mg/kg of sodium thiopental was administered to mice by intraperitoneal injection. The time for the loss of righting reflex and the time for the recovery were recorded. The injection volume was 0.2 ml/10 g, the administration rate was 0.2 ml/10 sec.

Kunming mice = assay: Acute toxicology test, LD50 in mice (Bliss method); assay type: in vivo; conditions: oral gavage; for Number of dead animals: 10 animals; for Probability units (Y): 1600 mg/kg
mice [3] = assay: Effect on the hypnotic effect induced by sodium thiopental in mice; conditions: 40 mg/kg sodium thiopental i.p. 30 minutes later
Protocol: as §4

Compound	MIC Range (Clostridium)	MIC Range (Veillonella)	Number of dead animals (Kunming mice; 655.4 mg/kg)	Number of dead animals (Kunming mice; 819.2 mg/kg)	Number of dead animals (Kunming mice; 1024 mg/kg)	Death rate (Kunming mice; 1280 mg/kg) [%]	Number of dead animals (Kunming mice; 1280 mg/kg)	Probability units (Y) (Kunming mice)	sleep latency induced by sodium thiopental, compared with the vehicle control group (mice [3]; 40 mg/kg intravenous)	sleep latency induced by sodium thiopental, compared with the vehicle control group (mice [3]; 80 mg/kg intravenous)	other results
Cc1ncc([N+](=O)[O-])n1CC(O)CCl (racemic) [racemic ornidazole, ornidazole]	1.0~2.0 mg/L	2.0~16.0 mg/L	0	2	7	90	9	7.19	no significant reduction	significantly reduced	LD50 at 14 days ([1]; intravenous injection): 272 to 346 mg/kg; LD50 at 14 days ([1]; ip, intraperitoneal injection): 1030 to 1210 mg/kg; LD50 at 14 days ([1]; oral gavage): 674 to 878 mg/kg; number of Purkinje cells in cerebellum (histological examination) (Beagle dogs): No reduction in the number of Purkinje cells and cellular degeneration was observed; MIC50 (Clostridium; Clostridium, read-out: MIC50): 2 µg/mL (≈ 9.11 µM); MIC90 (Clostridium; Clostridium, read-out: MIC90): 2 µg/mL (≈ 9.11 µM); MIC50 (Veillonella; Veillonella, read-out: MIC50): 4 µg/mL (≈ 18.2 µM); MIC90 (Veillonella; Veillonella, read-out: MIC90): 8 µg/mL (≈ 36.4 µM); duration of sleeping induced by sodium thiopental, compared with the vehicle control group (mice [2]): significantly extended
Cc1ncc([N+](=O)[O-])n1C[C@H](O)CCl [L-ornidazole, 1-(3-chloro-2-S-(−)-hydroxypropyl)-2-methyl-5-nitroimidazole]	1.0~2.0 mg/L	2.0~8.0 mg/L	0	1	4	80	8	6.96	no significant reduction	no significant reduction	food intake and body weight (Beagle dogs): Food intake of testing animals was inhibited while body weight of the testing animals was inhibited to a certain extent; histological examination of organs (Beagle dogs): Significant pathological changes were not found; manifestations (toxicity and side effects) (Beagle dogs): merely drooling, vomiting, involuntary urination and the like; recovery time of manifestations (Beagle dogs): 1 to 2 h; toxic effects (Beagle dogs): significant toxic effects were not observed; MIC50 (Clostridium): 2.0 µg/mL (≈ 9.11 µM); MIC90 (Clostridium): 2.0 µg/mL (≈ 9.11 µM); MIC50 (Veillonella): 4.0 µg/mL (≈ 18.2 µM); MIC90 (Veillonella): 8.0 µg/mL (≈ 36.4 µM); duration of sleeping induced by sodium thiopental, compared with the vehicle control group (mice [3]; 40 mg/kg intravenous): did not significantly extend; duration of sleeping induced by sodium thiopental, compared with the vehicle control group (mice [3]; 80 mg/kg intravenous): significantly extended
